“And” between values parts separate entries of the source, which are not always exact repeats. Identical values can stand only once.
What was measured:
PfENT1WT = biological target: T1, PfENT1WT (Plasmodium falciparum, UniProt Q8IDM6); test: biochemical; type: binding
T1 construct: 10xHis (N); made in house; host or cells: Sf9 insect cells (baculovirus)
Procedure: For the in vitro binding assay, Sf9 cells were solubilized in lysis buffer containing 2% (w/v) n-dodecyl-β-D-maltopyranoside (DDM, Anatrace) and protease inhibitor cocktail (0.8 μM aprotinin, 2 μM pepstatin, and 5 μg/ml leupeptin) at 4 °C for 2 h. The soluble supernatant was collected via centrifugation and incubated with Ni-NTA resin (QIAGEN) at 4 °C for 1 h. The resin was washed and eluted using lysis buffer containing 0.05% (w/v) DDM and 30 mM/300 mM imidazole. The protein was further purified by size-exclusion chromatography (Superdex 200 Increase 10/300; GE Healthcare) in buffer containing 25 mM MES (pH 6.0), 150 mM NaCl, and 0.05% (w/v) DDM. The peak fractions were pooled and concentrated to 10~50 μM for the nucleoside-binding assay.
The binding affinity between wild-type and mutant PfENT1 with nucleosides and GSK4 was measured using a Micro-Cal ITC200 (Malvern). All proteins were prepared in 25 mM MES (pH 6.0), 150 mM NaCl, and 0.05% (w/v) DDM. Nucleosides (5~10 mM) and GSK4 (100-200 μM) dissolved in the same buffer were titrated against 20–50 μM PfENT1 proteins at 25 °C. PEAQ-ITC analysis software (MicroCal) was employed to analyze the data. All titrations were repeated three times.

PfENT1 = biological target: T2, PfENT1 (Plasmodium falciparum, UniProt Q8IDM6); test: cell-based; type: cell-based; settings: uptake without competitor set as 100%, Fig. 1c; for Uptake of [3H]-inosine (Percentage of PfENT1 WT): competition by nonradioactive nucleoside/nucleobase 5 mM, 30 min, 30 °C; for remaining activity at 5000 µM: 0.5 h, read-out: Uptake of [3H]-inosine (Percentage of PfENT1 WT), competition by nonradioactive nucleoside/nucleobase 5 mM, 30 min, 30 °C
T2 construct: expressed in transfected cells; host or cells: S. cerevisiae BY4741, FUI1 deleted, PfENT1 knock-in under the TEF1 promoter
Procedure: The S. cerevisiae strain (ATCC, #201388) BY4741 (MATa his3Δ1 leu2Δ0 met15Δ0 ura3Δ0) was used as the starting yeast strain. Yeast strains were cultured in YPD medium (20 g/L peptone, 10 g/L yeast extract, and 20 g/L dextrose). The antibiotic G418 was supplemented at a concentration of 250 μg/mL to select strains carrying the KanMX marker. E. coli DH5α was used for subcloning.
Codon-optimized PfENT1 (for expression in yeast) was synthesized by Sangon Biotech. The carboxyl terminus of PfENT1 was HA-tagged through PCR. The TEF1p promoter and PGK1t terminator were amplified from BY4741 genomic DNA. Overlap PCR was applied to generate the gene overexpression cassette of PfENT1 (TEF1p promoter-PfENT1-PGK1t terminator). The two 600-bp homologous arms corresponding to the upstream and downstream regions of the FUI1 gene were amplified from BY4741 genomic DNA. The gene cassette of the ‘TEF1p promoter-PfENT1-PGK1t terminator’ together with the two homologous arms was cloned into the PUC19 plasmid through Gibson assembly, generating the final plasmid PUC19: PfENT1. PfENT1 mutations were generated using point mutation and verified by Sanger sequencing. The spacer targeting the FUI1 gene (5ʹ-[…]-3ʹ) was cloned into the pCas-BsaI plasmid to generate the pCas-FUI1 plasmid as described previously.
To obtain fui1Δ and PfENT1 (or its mutations) overexpression in the S. cerevisiae strain, 1 μg pCas-FUI1 plasmid and 15 μg PUC19:PfENT1 were transformed into yeast using the LiAc/ssDNA/PEG method. Then, the strains were plated on a YPD plate supplemented with G418. Clones were screened using PCR and finally verified through Sanger sequencing.
Cells were grown overnight in YPD medium to mid-log phase and harvested by centrifugation at 3000 × g for 5 min. Cells were washed three times in 2% glucose. The yeast pellets were resuspended in uptake assay buffer (25 mM Tris-HCl 8.0,150 mM NaCl, 2% glucose) to a final concentration of 2 × 10^8 cells mL^–1. The uptake assay was initiated by combining 100 μL of prewarmed (30 °C) cells and 100 μL uptake assay buffer mixture: 25 mM Tris-HCl 8.0, 150 mM NaCl, 2% glucose, 200 nM [^3H] Inosine ([8-^3H] inosine; 20 Ci mmol^–1, American Radiolabeled Chemicals). Cells were removed onto a membrane filter at the appropriate times to generate the time course. After washing by vacuum filtration with 2 ml ice-cold 2% glucose, the radioactivity retained on the filter was incubated with 1 mL of ULTIMA GOLD scintillation fluid (Perkin Elmer, 77-15311). Counts were measured using a liquid scintillation analyzer (Perkin Elmer, Tri-Carb 5110TR).
For competition assays, the indicated nucleosides and nucleobase were added into the external uptake assay buffer (25 mM Tris-HCl 8.0, 150 mM NaCl, and 2% glucose) to a final concentration of 5 mM, and the transport reaction was stopped at 30 min. The reading of the competition assays was normalized against the one without a competitor, which had the uptake of radiolabeled inosine set as 100%. All uptake assays were performed at 30 °C and repeated three times. Error bars represent the s.d. The final result was analyzed in the GraphPad Prism 8 software ([…]).

[1] = ITC, 25 °C, pH 6.0, mean ± SD (n = 3), Fig. 1a and text

T1 sequence (Q8IDM6 whole entry): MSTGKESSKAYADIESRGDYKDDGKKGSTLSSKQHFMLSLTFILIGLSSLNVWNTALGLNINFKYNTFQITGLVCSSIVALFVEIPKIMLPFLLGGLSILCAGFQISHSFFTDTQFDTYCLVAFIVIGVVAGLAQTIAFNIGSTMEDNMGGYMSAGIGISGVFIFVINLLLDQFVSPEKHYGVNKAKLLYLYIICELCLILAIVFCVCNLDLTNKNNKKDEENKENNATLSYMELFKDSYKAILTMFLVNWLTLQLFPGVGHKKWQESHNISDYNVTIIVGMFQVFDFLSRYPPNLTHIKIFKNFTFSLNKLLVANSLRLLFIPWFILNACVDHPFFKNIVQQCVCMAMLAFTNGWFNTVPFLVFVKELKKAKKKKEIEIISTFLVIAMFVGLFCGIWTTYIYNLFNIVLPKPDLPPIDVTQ
T2 sequence (Q8IDM6 whole entry): as above

Nc1ccn([C@@H]2O[C@H](CO)[C@@H](O)[C@H]2O)c(=O)n1 [Cytidine, cytidine]
binding affinity (Kd) (PfENT1WT; [1]): undetectable
Uptake of [3H]-inosine (Percentage of PfENT1 WT) (PfENT1): did not influence inosine uptake

Nc1nc2c(ncn2[C@@H]2O[C@H](CO)[C@@H](O)[C@H]2O)c(=O)[nH]1 [Guanosine, guanosine]
Kd (PfENT1WT; Kd, Mean and Mean ± SD, source data Figure 1a): 186 µM
Kd (PfENT1WT; Kd, N=3 (individual experiments), source data Figure 1a): 172 µM and 179 µM and 207 µM
Kd (PfENT1WT; binding affinity (Kd), ITC, 25 °C, pH 6.0, mean ± SD (n = 3), Fig. 1a and text): ~186 µM and 186 µM
remaining activity at 5000 µM (PfENT1): 10%
Uptake of [3H]-inosine (Percentage of PfENT1 WT) (PfENT1): abolished

O=c1ccn([C@@H]2O[C@H](CO)[C@@H](O)[C@H]2O)c(=O)[nH]1 [Uridine, uridine]
binding affinity (Kd) (PfENT1WT; [1]): undetectable
remaining activity at 5000 µM (PfENT1): 81%
Uptake of [3H]-inosine (Percentage of PfENT1 WT) (PfENT1): partially reduce inosine uptake

Nc1ncnc2c1ncn2[C@@H]1O[C@H](CO)[C@@H](O)[C@H]1O [Adenosine, adenosine]
remaining activity at 5000 µM (PfENT1): 18%
Uptake of [3H]-inosine (Percentage of PfENT1 WT) (PfENT1): relatively lower than that of inosine and guanosine

Cc1cn([C@H]2C[C@H](O)[C@@H](CO)O2)c(=O)[nH]c1=O [Thymidine, thymidine]
binding affinity (Kd) (PfENT1WT; [1]): undetectable
remaining activity at 5000 µM (PfENT1): 42%
Uptake of [3H]-inosine (Percentage of PfENT1 WT) (PfENT1): 41%
Uptake of [3H]-inosine (Percentage of PfENT1 WT) (PfENT1; listed as thymidine): partially reduce inosine uptake

O=c1[nH]cnc2nc[nH]c12 [Hypoxanthine, hypoxanthine]
binding affinity (Kd) (PfENT1WT; [1]): undetectable
remaining activity at 5000 µM (PfENT1): 23%
Uptake of [3H]-inosine (Percentage of PfENT1 WT) (PfENT1): partial inhibition

From article PMC10050424, “Structural basis of the substrate recognition and inhibition mechanism of Plasmodium falciparum nucleoside transporter PfENT1” (Nature Communications, 2023)
